Values of other authors, collected in US20100136096A1, “Systems for modulating inflammation” (Searete LLC, a limited liability corporation of the State …, priority 2008, published 2010).

Tests used:
proteasomal activity = settings: cultured breast cancer cells; disulfiram bound to copper; Chen et al. 2006
Src family kinase = settings: Sanjuan et al. 2006
[1] = tested on: Src family kinases (Src, Lck, Yes, Fyn); settings: at nanomolar concentrations
[2] = single agent, 400 mg infused over one hour; Looareesuwan et al. 1986
lethal septic shock = settings: mice; Nakamura et al. 2007

## CCN(CC)C(=S)SSC(=S)N(CC)CC [disulfiram, 1-(diethylthiocarbamoyldisulfanyl)-N,N-diethyl-methanethioamide]
Aldehyde dehydrogenase
  inhibition of aldehyde dehydrogenase: inhibits aldehyde dehydrogenase without toxicity
Proteasomal activity
  proteasomal activity: inhibits proteasomal activity

## CCN(CC)CCCC(C)Nc1ccnc2cc(Cl)ccc12 (stereo not drawn) [Chloroquine]
Src family kinase
  inhibition of CpG-induced Src family kinase activation, or its dependent cellular responses: does not inhibit

## Cc1nc(Nc2ncc(C(=O)Nc3c(C)cccc3Cl)s2)cc(N2CCN(CCO)CC2)n1.O [dasatinib, N-(2-chloro-6-methylphenyl)-2-[[6-[4-(2-hydroxyethyl)-1-piperazinyl]-2-methyl-4-pyrimidinyl]amino]-5-thiazolecarboxamide, monohydrate]
[1]
  inhibition of Src family kinases (Src, Lck, Yes, Fyn): inhibits

## CCN(CC)CCCC(C)Nc1ccnc2cc(Cl)ccc12.O=P(O)(O)O.O=P(O)(O)O (stereo not drawn) [chloroquine phosphate, 7-chloro-4-[[4-(diethylamino)-1-methylbutyl]amino]quinoline phosphate (1:2)]
[2]
  tolerability of intravenous infusion: without complication

## Cl.Cl.Nc1ccccc1Oc1ccc2c(N)nsc2c1 [Example M62812, 3-amino-6-(2-aminophenoxy)-1,2-benzisothiazole dihydrochloride]
Lethal septic shock
  prevention of lethal septic shock: prevents lethal septic shock
